# In patent US20230382889A1 (Volastra Therapeutics, Inc., priority 2022, published 2023):
# Target: hKIF18A (1-374) (Homo sapiens (Human), UniProt Q8NI77)
# Assay: Inhibition of KIF18A microtubule-dependent ATPase activity (ADP-Glo)
# Assay type: biochemical
# Settings: 4 nM hKIF18A (1-374)
# Outline: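 Reaction was started with pre-formed microtubules and ATP (0.2 mg/mL and 2.0 mM in the added mix) and run 60 min at 28 °C. ADP was read by ADP-Glo luminescence, and IC50 came from a four-parameter fit of % inhibition.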
# hKIF18A (1-374), sequence (Q8NI77 1-374): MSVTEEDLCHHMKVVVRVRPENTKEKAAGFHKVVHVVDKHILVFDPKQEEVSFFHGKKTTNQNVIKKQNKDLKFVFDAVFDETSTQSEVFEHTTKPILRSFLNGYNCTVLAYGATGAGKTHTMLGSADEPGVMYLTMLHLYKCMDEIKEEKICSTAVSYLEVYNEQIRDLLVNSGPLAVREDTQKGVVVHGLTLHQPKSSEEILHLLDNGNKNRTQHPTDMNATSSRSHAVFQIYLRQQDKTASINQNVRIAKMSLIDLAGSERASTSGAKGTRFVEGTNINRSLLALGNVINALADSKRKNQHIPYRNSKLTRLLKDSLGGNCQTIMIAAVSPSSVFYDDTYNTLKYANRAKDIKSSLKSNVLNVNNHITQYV
row,SMILES,IC50 [nM]
1,"O=S(=O)(CCO)Nc1ccc(-c2cn(-c3ccc(F)c(N4CC5CC5C4)n3)nn2)c(N2CCC3(CC2)CC3)c1 (stereo not shown) [Compound 142, N-(4-(1-(6-(3-azabicyclo[3.1.0]hexan-3-yl)-5-fluoropyridin-2-yl)-1H-1,2,3-triazol-4-yl)-3-(6-azaspiro[2.5]octan-6-yl)phenyl)-2-hydroxyethane-1-sulfonamide]",26
2,"CS(=O)(=O)Nc1ccc(-c2ncc(-c3cccc(N4CC(F)(F)C4)n3)[nH]2)c(N2CCC3(CC2)CC3)c1 [Compound 33, N-(4-(5-(6-(3,3-difluoroazetidin-1-yl)pyridin-2-yl)-1H-imidazol-2-yl)-3-(6-azaspiro[2.5]octan-6-yl)phenyl)methanesulfonamide]",36
3,"CS(=O)(=O)Nc1ccc(-n2cc(-c3cccc(N4CC5(CCO5)C4)n3)nn2)c(N2CCC3(CC2)CC3)c1 [Compound 58, N-(4-(4-(6-(1-oxa-6-azaspiro[3.3]heptan-6-yl)pyridin-2-yl)-1H-1,2,3-triazol-1-yl)-3-(6-azaspiro[2.5]octan-6-yl)phenyl)methanesulfonamide]",41
4,"Cc1cc(-c2nnc(-c3ccc(NS(C)(=O)=O)cc3N3CCC4(CC3)CC4)[nH]2)nc(N2CCOCC2)n1 [Compound 6, N-(4-(5-(6-methyl-2-morpholinopyrimidin-4-yl)-4H-1,2,4-triazol-3-yl)-3-(6-azaspiro[2.5]octan-6-yl)phenyl)methanesulfonamide]",25
5,"CCS(=O)(=O)Nc1ccc(-n2cc(-c3ccc(F)c(C(O)C4CCCC4)n3)nn2)c(N2CCC3(CC2)CC3)c1 (stereo not shown) [Compound 134, N-(4-(4-(6-(cyclopentyl(hydroxy)methyl)-5-fluoropyridin-2-yl)-1H-1,2,3-triazol-1-yl)-3-(6-azaspiro[2.5]octan-6-yl)phenyl)ethanesulfonamide]",14
6,"CC1CCN(c2cc(NS(=O)(=O)CCO)ccc2-c2cn(-c3ccc(F)c(N4CCC(F)(F)CC4)n3)nn2)CC1 [Compound 141, N-(4-(1-(6-(4,4-difluoropiperidin-1-yl)-5-fluoropyridin-2-yl)-1H-1,2,3-triazol-4-yl)-3-(4-methylpiperidin-1-yl)phenyl)-2-hydroxyethane-1-sulfonamide]",17
7,"CC1CCN(c2cc(NS(=O)(=O)CCO)ccc2-n2cc(-c3cncc(N4CCC(F)(F)CC4)n3)nn2)CC1 [Compound 143, N-(4-(4-(6-(4,4-difluoropiperidin-1-yl)pyrazin-2-yl)-1H-1,2,3-triazol-1-yl)-3-(4-methylpiperidin-1-yl)phenyl)-2-hydroxyethane-1-sulfonamide]",5.5
8,"O=S(=O)(CCO)Nc1ccc(-n2cc(-c3cncc(OC4CCCC4)n3)nn2)c(N2CCC3(CC2)CC3)c1 [Compound 150, N-(4-(4-(6-(cyclpentyloxy)pyrazin-2-yl)-1H-1,2,3-triazol-1-yl)-3-(6-azaspiro[2.5]octan-6-yl)phenyl)-2-hydroxyethane-1-sulfonamide]",6
9,"O=S(=O)(CCO)Nc1ccc(-n2cc(-c3csc(N4CCCC4)n3)nn2)c(N2CCC3(CC2)CC3)c1 [Compound 81, 2-hydroxy-N-(4-(4-(2-(pyrrolidin-1-yl)thiazol-4-yl)-1H-1,2,3-triazol-1-yl)-3-(6-azaspiro[2.5]octan-6-yl)phenyl)ethane-1-sulfonamide]",140
10,"Cc1cc(-c2cn(-c3ccc(NS(=O)(=O)CCO)cc3N3CCC4(CC3)CC4)nn2)nc(N2CCC(F)(F)CC2)c1 [Compound 48, N-(4-(4-(6-(4,4-difluoropiperidin-1-yl)-4-methylpyridin-2-yl)-1H-1,2,3-triazol-1-yl)-3-(6-azaspiro[2.5]octan-6-yl)phenyl)-2-hydroxyethane-1-sulfonamide]",17
11,"O=S(=O)(CCO)Nc1ccc(-c2nnc(-c3cccc(N4CCC(F)(F)CC4)n3)[nH]2)c(N2CCC3(CC2)CC3)c1 [Compound 8, N-(4-(5-(6-(4,4-difluoropiperidin-1-yl)pyridin-2-yl)-4H-1,2,4-triazol-3-yl)-3-(6-azaspiro[2.5]octan-6-yl)phenyl)-2-hydroxyethane-1-sulfonamide]",5.1
12,"CS(=O)(=O)Nc1ccc(-n2cc(-c3cncc(N4CCC(F)(F)CC4)n3)nn2)c(N2CCC3(CC2)CC3)c1 [Compound 63, N-(4-(4-(6-(4,4-difluoropiperidin-1-yl)pyrazin-2-yl)-1H-1,2,3-triazol-1-yl)-3-(6-azaspiro[2.5]octan-6-yl)phenyl)methanesulfonamide]",3.4
13,"CCS(=O)(=O)Nc1ccc(-n2cc(-c3cc(CO)cc(N4CCC(F)(F)CC4)n3)nn2)c(N2CCC3(CC2)CC3)c1 [Compound 131, N-(4-(4-(6-(4,4-difluoropiperidin-1-yl)-4-(hydroxymethyl)pyridin-2-yl)-1H-1,2,3-triazol-1-yl)-3-(6-azaspiro[2.5]octan-6-yl)phenyl)ethanesulfonamide]",29
14,"O=S(=O)(CCO)Nc1ccc(-c2cn(-c3ccc(F)c(N4CCC(F)(F)CC4)n3)nn2)c(N2CCC3(CC2)CC3)c1 [Compound 140, N-(4-(1-(6-(4,4-difluoropiperidin-1-yl)-5-fluoropyridin-2-yl)-1H-1,2,3-triazol-4-yl)-3-(6-azaspiro[2.5]octan-6-yl)phenyl)-2-hydroxyethane-1-sulfonamide]",18
15,"CCS(=O)(=O)Nc1ccc(-c2cn(-c3cc(C)cc(N4CCC(F)(F)CC4)n3)nn2)c(N2CCC3(CC2)CC3)c1 [Compound 108, N-(4-(1-(6-(4,4-difluoropiperidin-1-yl)-4-methylpyridin-2-yl)-1H-1,2,3-triazol-4-yl)-3-(6-azaspiro[2.5]octan-6-yl)phenyl)ethanesulfonamide]",63
16,"Cc1cc(-c2cn(-c3ccc(NS(=O)(=O)CCO)cc3N3CCCCC3)nn2)nc(N2CC3C(C2)C3(F)F)n1 (stereo not shown) [Compound 74, N-(4-(4-(2-(6,6-difluoro-3-azabicyclo[3.1.0]hexan-3-yl)-6-methylpyrimidin-4-yl)-1H-1,2,3-triazol-1-yl)-3-(piperidin-1-yl)phenyl)-2-hydroxyethane-1-sulfonamide]",18
17,"CS(=O)(=O)Nc1ccc(-n2cc(-c3csc(N4CCC(F)(F)CC4)n3)nn2)c(N2CCC3(CC2)CC3)c1 [Compound 50, N-(4-(4-(2-(4,4-difluoropiperidin-1-yl)thiazol-4-yl)-1H-1,2,3-triazol-1-yl)-3-(6-azaspiro[2.5]octan-6-yl)phenyl)methanesulfonamide]",7.2
18,"CS(=O)(=O)Nc1ccc(-n2cc(-c3ccc(C(O)C4CCCC4)o3)nn2)c(N2CCC3(CC2)CC3)c1 (stereo not shown) [Compound 25, N-(4-(4-(5-(cyclopentyl(hydroxy)methyl)furan-2-yl)-1H-1,2,3-triazol-1-yl)-3-(6-azaspiro[2.5]octan-6-yl)phenyl)methanesulfonamide]",4.7
19,"O=S(=O)(CCO)Nc1ccc(-c2cn(-c3ccc(F)c(S(=O)(=O)N4CC(F)(F)C4)c3)nn2)c(N2CCC3(CC2)CC3)n1 [Compound 111, N-(5-(1-(3-((3,3-difluoroazetidin-1-yl)sulfonyl)-4-fluorophenyl)-1H-1,2,3-triazol-4-yl)-6-(6-azaspiro[2.5]octan-6-yl)pyridin-2-yl)-2-hydroxyethane-1-sulfonamide]",68
20,"CS(=O)(=O)Nc1ccc(-c2nnc(-c3cccc4c3OCCC4)[nH]2)c(N2CCC3(CC2)CC3)c1 [Compound 3, N-(4-(5-(chroman-8-yl)-4H-1,2,4-triazol-3-yl)-3-(6-azaspiro[2.5]octan-6-yl)phenyl)methanesulfonamide]",280
21,"CC(C)(C)NS(=O)(=O)c1cccc(-c2cnc(-c3ccc(NS(C)(=O)=O)cc3N3CCC4(CC3)CC4)[nH]2)c1 [Compound 34, N-(tert-butyl)-3-(2-(4-(methylsulfonamido)-2-(6-azaspiro[2.5]octan-6-yl)phenyl)-1H-imidazol-5-yl)benzenesulfonamide]",74
22,"O=S(=O)(CCO)Nc1ccc(-n2cc(-c3ccc(C4CCCC4)o3)nn2)c(N2CCC3(CC2)CC3)c1 [Compound 126, N-(4-(4-(5-cyclopentylfuran-2-yl)-1H-1,2,3-triazol-1-yl)-3-(6-azaspiro[2.5]octan-6-yl)phenyl)-2-hydroxyethane-1-sulfonamide]",71
23,"Cc1cc(-c2cn(-c3ccc(NS(=O)(=O)C4CC4)cc3N3CCC4(CC3)CC4)nn2)nc(C(O)C2CCCC2)c1 (stereo not shown) [Compound 139, N-(4-(4-(6-(cyclopentyl(hydroxy)methyl)-4-methylpyridin-2-yl)-1H-1,2,3-triazol-1-yl)-3-(6-azaspiro[2.5]octan-6-yl)phenyl)cyclopropanesulfonamide]",40
24,"CS(=O)(=O)Nc1ccc(-n2cc(-c3cccc(N4CCC(F)(F)CC4)n3)nn2)c(N2CC3CC(C3)C2)c1 [Compound 53, N-(3-(3-azabicyclo[3.1.1]heptan-3-yl)-4-(4-(6-(4,4-difluoropiperidin-1-yl)pyridin-2-yl)-1H-1,2,3-triazol-1-yl)phenyl)methanesulfonamide]",43
25,"O=S(=O)(CCO)Nc1ccc(-c2ncc(-c3cccc(N4CCC(F)(F)CC4)n3)[nH]2)c(N2CCC3(CC2)CC3)c1 [Compound 35, N-(4-(5-(6-(4,4-difluoropiperidin-1-yl)pyridin-2-yl)-1H-imidazol-2-yl)-3-(6-azaspiro[2.5]octan-6-yl)phenyl)-2-hydroxyethane-1-sulfonamide]",27
26,"CS(=O)(=O)Nc1ccc(-n2cc(-c3cccc(C(O)C4CCCC4)n3)nn2)c(N2CCC3(CC2)CC3)c1 (stereo not shown) [Compound 22, N-(4-(4-(6-(cyclopentyl(hydroxy)methyl)pyridin-2-yl)-1H-1,2,3-triazol-1-yl)-3-(6-azaspiro[2.5]octan-6-yl)phenyl)methanesulfonamide]",11
27,"O=S(=O)(CCO)Nc1ccc(-n2cc(-c3ccc(C(O)C4CCCC4)o3)nn2)c(N2CCC3(CC2)CC3)c1 (single isomer, unassigned) [Compound 51a]",2.4
28,"CS(=O)(=O)Nc1ccc(-n2cc(-c3cccc(N4CCC(F)(F)CC4)n3)nn2)c(N2CC3CC3C2)c1 (stereo not shown) [Compound 165, N-(3-(3-azabicyclo[3.1.0]hexan-3-yl)-4-(4-(6-(4,4-difluoropiperidin-1-yl)pyridin-2-yl)-1H-1,2,3-triazol-1-yl)phenyl)methanesulfonamide]",283
